Test results as given in ChEMBL document CHEMBL1124752, “Cyclobut-A and cyclobut-G: broad-spectrum antiviral agents with potential utility for the therapy of AIDS” (J Med Chem, 1990).
≈ marks a conversion by molar mass, not a printed value.

What was measured:
Human alphaherpesvirus 1 [1] = assay: Tested for mean day to death of nonsurvivors against HSV-1 infection in mice at 200 mg/kg per day; assay type: functional
Human alphaherpesvirus 1 [2] = assay: Tested for mean day to death of nonsurvivors against HSV-1 infection in mice at 50 mg/kg per day; assay type: functional
Human alphaherpesvirus 1 [3] = assay: In vitro antiviral activity against herpesvirus, HSV-1,E-377 strain by plaque reduction assay in human foreskin fibroblasts; assay type: functional; conditions: read-out: ED50 (the source's name)
Human alphaherpesvirus 2 [4] = assay: In vitro antiviral activity against herpesvirus,HSV-2,HEET strain by plaque reduction assay in human foreskin fibroblasts; assay type: functional; conditions: read-out: ED50 (the source's name)
Human alphaherpesvirus 1 [5] = assay: Tested for mean day to death of nonsurvivors against HSV-1 infection in mice at 12.5 mg/kg per day; assay type: functional
Human alphaherpesvirus 1 [6] = assay: In vitro antiviral activity against herpesvirus, HSV-1, E-377 strain by plaque reduction assay in human foreskin fibroblasts.; assay type: functional; conditions: read-out: ID50 (the source's name)
[7] = In vitro antiviral activity against herpesvirus, HSV-JEN strain by plaque reduction assay in human foreskin fibroblasts.; assay type: functional, herpes simplex virus; conditions: Human alphaherpesvirus 1; read-out: ID50 (the source's name)
Human alphaherpesvirus 2 [8] = assay: In vitro antiviral activity against herpesvirus, HSV-2, JEN strain by plaque reduction assay in human foreskin fibroblasts; assay type: functional; conditions: read-out: ED50 (the source's name)
Human alphaherpesvirus 2 [9] = assay: In vitro antiviral activity against herpesvirus, HSV-2, MS strain by plaque reduction assay in human foreskin fibroblasts; assay type: functional; conditions: read-out: ED50 (the source's name)
Human alphaherpesvirus 1 [10] = assay: Number of survivors per number of HSV-1 infected mice treated with 12.5 mg/kg per day; 2/10; assay type: functional
Human alphaherpesvirus 1 [11] = assay: Number of survivors per number of HSV-1 infected mice treated with 200 mg/kg per day; 4/10; assay type: functional
Human alphaherpesvirus 1 [12] = assay: Number of survivors per number of HSV-1 infected mice treated with 50 mg/kg per day; 0/10; assay type: functional
Human alphaherpesvirus 2 [13] = assay: In vitro antiviral activity against herpesvirus, HSV-2, MS strain by plaque reduction assay in human foreskin fibroblasts.; assay type: functional; conditions: read-out: ID50 (the source's name)
Human alphaherpesvirus 2 [14] = assay: In vitro antiviral activity against herpesvirus,HSV-2,X-79 strain by plaque reduction assay in human foreskin fibroblasts; assay type: functional; conditions: read-out: ED50 (the source's name)
Human alphaherpesvirus 2 [15] = assay: In vitro antiviral activity against herpesvirus, HSV-2, X-79 strain by plaque reduction assay in human foreskin fibroblasts.; assay type: functional; conditions: read-out: ID50 (the source's name)
[16] = In vitro antiviral activity against herpesvirus, HSV-HEET strain by plaque reduction assay in human foreskin fibroblasts.; assay type: functional, herpes simplex virus; conditions: Human alphaherpesvirus 1; read-out: ID50 (the source's name)
Raji = assay: Tested for the inhibition of diffuse early antigen production assayed by immunofluorescent monoclonal antibody.; assay type: functional; conditions: Homo sapiens
Human alphaherpesvirus 3 [17] = assay: In vitro antiviral activity tested against herpesvirus, VZV, Ellen strain by plaque reduction assay in human foreskin fibroblasts.; conditions: Human alphaherpesvirus 3, read-out: ED50
Human alphaherpesvirus 3 [18] = assay: In vitro antiviral activity against herpesvirus, VZV, Ellen strain by plaque reduction assay in human foreskin fibroblasts.; conditions: Human alphaherpesvirus 3, read-out: ID50
Human alphaherpesvirus 3 [19] = assay: In vitro antiviral activity tested against herpesvirus, VZV, OKA strain by plaque reduction assay in human foreskin fibroblasts.; conditions: Human alphaherpesvirus 3, read-out: ED50
Human alphaherpesvirus 3 [20] = assay: In vitro antiviral activity against herpesvirus, VZV, OKA strain by plaque reduction assay in human foreskin fibroblasts.; conditions: Human alphaherpesvirus 3, read-out: ID50
Homo sapiens = species: Homo sapiens; assay: The drug concentration was determined to reduce proliferation of human foreskin fibroblasts to 50% of untreated controls in proliferation assay.; assay type: functional; conditions: read-out: ID50 (the source's name)

Nc1nc2c(ncn2COCCO)c(=O)[nH]1 [ACYCLOVIR]
MDD (Human alphaherpesvirus 1 [1]): 12.3 | MDD (Human alphaherpesvirus 1 [2]): 8 | EC50 (Human alphaherpesvirus 1 [3]): 0.08 µg/mL (≈ 0.355 µM) | EC50 (Human alphaherpesvirus 2 [4]): 0.06 µg/mL (≈ 0.266 µM) | MDD (Human alphaherpesvirus 1 [5]): 7.8 | IC50 (Human alphaherpesvirus 1 [6]): > 100 µg/mL | IC50 [7]: > 100 µg/mL | EC50 (Human alphaherpesvirus 2 [8]): 0.07 µg/mL (≈ 0.311 µM) | EC50 (Human alphaherpesvirus 2 [9]): 0.09 µg/mL (≈ 0.4 µM) | Survivors / treated (Human alphaherpesvirus 1 [10]): 2 | Survivors / treated (Human alphaherpesvirus 1 [11]): 4 | Survivors / treated (Human alphaherpesvirus 1 [12]): 0 | IC50 (Human alphaherpesvirus 2 [13]): > 100 µg/mL | EC50 (Human alphaherpesvirus 2 [14]): 0.1 µg/mL (≈ 0.444 µM) | IC50 (Human alphaherpesvirus 2 [15]): > 100 µg/mL | IC50 [16]: > 100 µg/mL | EC50 (Raji; read-out: ED50 (the source's name)): 3.8 µg/mL (≈ 16.9 µM) | IC50 (Raji; read-out: ID50 (the source's name)): > 100 µg/mL | EC50 (Human alphaherpesvirus 3 [17]): 2.3 µg/mL (≈ 10.2 µM) | IC50 (Human alphaherpesvirus 3 [18]): > 100 µg/mL | EC50 (Human alphaherpesvirus 3 [19]): 3.7 µg/mL (≈ 16.4 µM) | IC50 (Human alphaherpesvirus 3 [20]): > 100 µg/mL | IC50 (Homo sapiens): 165 µg/mL (≈ 733 µM)
